Patent US20100144845A1, “OLIGONUCLEOTIDE SYSTEMS FOR TARGETED INTRACELLULAR DELIVERY” (Massachusetts Institute of Technology, priority 2006, published 2010)

What was measured:
LNCaP cells = assay: MTT cell viability assay; assay type: cell-based; conditions: drug concentration 5 μM, Dox to RNA 1:1, treated approximately one hour, total of 72 hours
Description: (§1) Doxorubicin (Dox), a cytotoxic drug commonly used in chemotherapy that can dock into double-stranded portions of nucleic acids because of the stacking capacity of its many-ringed structure, was “loaded” onto oligonucleotides at a molar ratio of 1:1, Dox to RNA, e.g., as described in Bagalkot, V. et al., Angewandte Chemie (International ed 45, 8149-8152 (2006) (the drug concentration was 5 μM). MTT assays were performed essentially as previously described, e.g., in Akaishi, S. et al., The Tohoku Journal of Experimental Medicine 175, 29-42 (1995). Briefly, 100 μl aliquots of LNCaP or PC3 cells (5×10^3 cells/mL) were seeded in 24-well plates (n=5), allowed to grow overnight and treated, for approximately one hour, with 100 μL of either a) nothing; b) Dox alone; c) Dox conjugated with the initial library; d) Dox conjugated to the Rd-12 population of the LNCaP selection; or e) Dox conjugated to the Rd-12 population of the PC3 selection; then washed and further incubated, in fresh media, for a total of 72 hours. The cells were then washed twice with EBSS, treated with 50 μL MTT solution for 4 hours, and lysed with MTT-detergent overnight. The absorbance was measured the following day using micro-plate reader at 570 nm.

PC3 cells = assay: MTT cell viability assay; assay type: cell-based; conditions: drug concentration 5 μM, Dox to RNA 1:1, treated approximately one hour, total of 72 hours
Description: as §1

SMILES: COc1cccc2c1C(=O)c1c(O)c3c(c(O)c1C2=O)C[C@@](O)(C(=O)CO)C[C@@H]3O[C@H]1C[C@H](N)[C@H](O)[C@H](C)O1 [Dox, Doxorubicin]
- effectiveness (cytotoxicity) in MTT assay (LNCaP cells): equipotent against PC3 and LNCaP cells
- effectiveness (cytotoxicity) in MTT assay (PC3 cells): equipotent against PC3 and LNCaP cells
